In patent US8426452B2, “Process for the treatment and prevention of diseases caused by fungi” (priority 2008, dated 2013):
Read-outs that look alike come from different tables or passages of the source.

Experiments:
[1] = test system: S. cerevisiae strain AH109; experiment: Growth inhibition of S. cerevisiae strain AH109 in YPD medium (turbidity, A600)
Experimental: (§1) AH109 cells or ATCC 96901 cells were inoculated into 200.0 ml of YPD to obtain an initial OD600 reading of 0.005 on a spectrophotometer. […] The yeast suspensions were placed on a shaking incubator set at 200 rpm and 30° C. for 18-24 hr (S. cerevisiae) or 10-12 hr (C. albicans), and then the extent of fungal growth was assessed by measuring the sample absorbance at 600 nm (A600 nm) on a spectrophotometer. The effect of each concentration of antifungal agent was tested in triplicate.

[2] = test system: C. albicans strain ATCC 96901; experiment: Growth inhibition of fluconazole-resistant C. albicans strain ATCC 96901 in YPD medium (turbidity, A600)
Experimental: as §1

[3] = test system: C. albicans strain S2; experiment: Broth microdilution susceptibility testing (MIC), C. albicans strain S2; details: fluconazole-resistant C. albicans strain S2, RPMI medium pH 7.0, 48 hr, 30° C.; MIC = lowest concentration with 100% growth inhibition
Experimental: (§2) Broth Microdilution Susceptibility Testing of C. albicans:
(§3) Note that all susceptibility assays were performed in triplicate wells using sterile flat-bottom 24-well microtiter plates.

[4] = test system: A-431 human skin cells
Experimental: Cells were then incubated for 48 hr at 37° C. After incubation, the MTT viability assay was performed. This assay measures the conversion of 3-[4,5-dimethylthiazol-2-yl]-2,5-diphenyl tetrazolium bromide (MTT) into a colored product in living cells.
The MTT assay was used to determine cell viability and the LC50 value for each compound was evaluated.

[5] = test system: C. albicans strain ATCC 96901; experiment: Broth microdilution susceptibility testing (MIC), C. albicans strain ATCC 96901; details: fluconazole-resistant C. albicans strain ATCC 96901, RPMI medium pH 7.0, 48 hr, 30° C.; MIC = lowest concentration with 100% growth inhibition
Experimental: as §2, §3

[6] = Saccharomyces cerevisiae, AH109, AH109, read-out: IC50, concentration of drug required to inhibit the growth of yeast cells by 50%
[7] = Candida albicans, ATCC96901, read-out: IC50, concentration of drug required to inhibit the growth of yeast cells by 50%

Structure (SMILES): C[C@@H]1[C@H](O)[C@@H](C)/C=C/C=C/C=C/C=C/C=C/C=C/C=C/[C@H](O[C@@H]2O[C@H](C)[C@@H](O)[C@H](N)[C@@H]2O)C[C@@H]2O[C@](O)(C[C@@H](O)C[C@@H](O)[C@H](O)CC[C@@H](O)C[C@@H](O)CC(=O)O[C@H]1C)C[C@H](O)[C@H]2C(=O)O [amphotericin B]
- IC50 ([1]; read-out: IC50, concentration of drug required to inhibit the growth of yeast cells by 50%, S. cerevisiae AH109, YPD medium, 18-24 hr, 30° C.): 0.03 µM
- IC50 ([2]; read-out: IC50, concentration of drug required to inhibit the growth of yeast cells by 50%, fluconazole-resistant C. albicans ATCC 96901, YPD medium, 10-12 hr, 30° C.): 0.23 µM

Structure (SMILES): O=C1c2ccccc2[Se](=O)N1c1ccccc1 (stereo not drawn) [ebselen se-oxide, 2-phenyl-1,2-benzisoselenazol-3(2H)-one 1-oxide]
- MIC compared with fluconazole [3]: lower MIC values, than fluconazole
- IC50 [1, 6]: 2.1 µM
- Toxicity to A-431 human skin cells (MTT viability, LC50 evaluated) [4]: neither compound was toxic
- IC50 [2, 7]: 4.5 µM
- MIC compared with fluconazole [5]: lower MIC values, than fluconazole

Structure (SMILES): O=c1c2ccccc2[se]n1-c1ccccc1 [ebselen, 2-phenyl-1,2-benzisoselenazol-3(2H)-one]
- MIC compared with fluconazole [3]: lower MIC values, than fluconazole
- IC50 [1, 6]: 4.6 µM
- Toxicity to A-431 human skin cells (MTT viability, LC50 evaluated) [4]: neither compound was toxic
- IC50 [2, 7]: 5.83 µM
- MIC compared with fluconazole [5]: lower MIC values, than fluconazole

Structure (SMILES): OC(Cn1cncn1)(Cn1cncn1)c1ccc(F)cc1F [fluconazole]
- IC50 [1, 6]: 53 µM
- IC50 [2, 7]: 460 µM

Structure (SMILES): CCC(C)n1ncn(-c2ccc(N3CCN(c4ccc(OCC5COC(Cn6cncn6)(c6ccc(Cl)cc6Cl)O5)cc4)CC3)cc2)c1=O (stereo not drawn) [itraconazole]
- IC50 [1, 6]: 1.13 µM
- IC50 [2, 7]: 0.48 µM

Structure (SMILES): CC(=O)N1CCN(c2ccc(OCC3COC(Cn4ccnc4)(c4ccc(Cl)cc4Cl)O3)cc2)CC1 (stereo not drawn) [ketoconazole]
- IC50 [1, 6]: 0.54 µM
- IC50 [2, 7]: 0.21 µM
